Target: T1, SIRT1 (Homo sapiens, UniProt Q96EB6)
T1 sequence (Q96EB6 1-747): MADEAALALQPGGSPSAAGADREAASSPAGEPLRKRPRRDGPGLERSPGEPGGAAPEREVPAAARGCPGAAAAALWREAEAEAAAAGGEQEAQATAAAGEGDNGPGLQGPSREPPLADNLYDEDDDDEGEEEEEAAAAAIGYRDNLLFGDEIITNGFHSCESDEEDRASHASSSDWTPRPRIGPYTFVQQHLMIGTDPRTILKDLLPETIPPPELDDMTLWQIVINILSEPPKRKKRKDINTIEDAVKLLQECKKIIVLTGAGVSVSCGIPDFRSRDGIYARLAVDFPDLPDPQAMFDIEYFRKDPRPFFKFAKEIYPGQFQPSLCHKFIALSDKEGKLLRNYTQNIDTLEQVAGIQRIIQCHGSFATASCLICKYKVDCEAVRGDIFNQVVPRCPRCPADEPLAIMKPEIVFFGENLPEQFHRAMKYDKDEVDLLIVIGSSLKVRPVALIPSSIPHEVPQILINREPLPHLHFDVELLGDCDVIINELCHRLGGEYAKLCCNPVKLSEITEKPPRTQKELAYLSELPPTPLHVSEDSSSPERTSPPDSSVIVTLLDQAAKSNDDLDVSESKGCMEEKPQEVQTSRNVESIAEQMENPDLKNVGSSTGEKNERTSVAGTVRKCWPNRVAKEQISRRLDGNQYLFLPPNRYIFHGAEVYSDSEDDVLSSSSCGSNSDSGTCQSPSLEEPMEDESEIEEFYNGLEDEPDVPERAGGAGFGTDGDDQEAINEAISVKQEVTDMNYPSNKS
Assay: Trp mass spectrometry assay (SIRT1 activation)
Format: biochemical
Settings: Trp peptide substrate; for Tryp AVG EC1.5 (μM): concentration of test compound that results in 150% activation of SIRT1; for Emax: percent maximum fold activation of SIRT1, read-out: Tryp % Fold Act
Outline: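 Activation is expressed as EC1.5, the concentration raising activity 50% above DMSO control, and as maximum percent of control. Mass-spec readout was OAADPR or deacetylated Trp peptide after a formic-acid-quenched 25-min, 25 °C reaction: 10 nM bacterially expressed His-SIRT1, 0.5 μM acetyl-p53-derived peptide, 120 μM NAD+, pH 7.5 HEPES with […].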

## O=C(Nc1cncc(F)c1)N1c2nc(-c3cncc(C(F)(F)F)c3)ccc2N2CCC[C@H]1C2 [Example 411]
  Tryp AVG EC1.5 (μM): A (EC1.5<1 μM)
  Emax: ≥ 150%

## O=C(Nc1cccnn1)N1c2nc(-c3cncc(C(F)(F)F)c3)ccc2N2CCC[C@H]1C2 [Example 412]
  Tryp AVG EC1.5 (μM): A (EC1.5<1 μM)
  Emax: ≥ 150%

## Cc1noc(C)c1-c1ccc2c(n1)N(C(=O)Nc1cnccn1)[C@H]1CCN2C1 [Example 413]
  Tryp AVG EC1.5 (μM): C (EC1.5>25 μM)
  Emax: < 150%

## Cn1nccc1-c1ccc2c(n1)N(C(=O)Nc1cnccn1)[C@H]1CCN2C1 [Example 414]
  Tryp AVG EC1.5 (μM): B (EC1.5 1-25 μM)
  Emax: ≥ 150%

## CS(=O)(=O)c1cccc(-c2ccc3c(n2)N(C(=O)Nc2cnccn2)[C@H]2CCN3C2)c1 [Example 415]
  Tryp AVG EC1.5 (μM): A (EC1.5<1 μM)
  Emax: ≥ 150%

## O=C(Nc1cnccn1)N1c2nc(-c3cc(F)c(F)c(F)c3)ccc2N2CC[C@H]1C2 [Example 416]
  Tryp AVG EC1.5 (μM): C (EC1.5>25 μM)
  Emax: < 150%

## O=C(Nc1cnccn1)N1c2nc(-c3cncc(Cl)c3)ccc2N2CCC[C@H]1C2 [Example 417]
  Tryp AVG EC1.5 (μM): A (EC1.5<1 μM)
  Emax: ≥ 150%

## CS(=O)(=O)Nc1cccc(-c2ccc3c(n2)N(C(=O)Nc2cnccn2)[C@H]2CCN3C2)c1 [Example 418]
  Tryp AVG EC1.5 (μM): B (EC1.5 1-25 μM)
  Emax: ≥ 150%

## N#Cc1cc(-c2ccc3c(n2)N(C(=O)Nc2cnccn2)[C@H]2CCN3C2)ccc1F [Example 419]
  Tryp AVG EC1.5 (μM): A (EC1.5<1 μM)
  Emax: ≥ 150%

## O=C(Nc1ccncn1)N1c2nc(N3CCCNCC3)ccc2N2CCC[C@H]1C2 [Example 420]
  Tryp AVG EC1.5 (μM): C (EC1.5>25 μM)
  Emax: < 150%

## O=C(Nc1ccncc1F)N1c2nc(-c3cccc(Cl)c3)ccc2N2CCC[C@H]1C2 [Example 421]
  Tryp AVG EC1.5 (μM): A (EC1.5<1 μM)
  Emax: ≥ 150%

## O=C(Nc1ccncc1)N1c2nc(-c3ccnc(N4CC[C@H](F)C4)c3)ccc2N2CC[C@H]1C2 [Example 422]
  Tryp AVG EC1.5 (μM): A (EC1.5<1 μM)
  Emax: ≥ 150%

## O=C(Nc1cnccn1)N1c2nc(-c3ccnc(N4CCC(F)(F)C4)c3)ccc2N2CC[C@H]1C2 [Example 423]
  Tryp AVG EC1.5 (μM): A (EC1.5<1 μM)
  Emax: ≥ 150%

## COc1cc(NC(=O)N2c3nc(-c4ccnc(N5CC[C@@H](F)C5)c4)ccc3N3CC[C@H]2C3)ncn1 [Example 424]
  Tryp AVG EC1.5 (μM): B (EC1.5 1-25 μM)
  Emax: ≥ 150%

## O=C(Nc1ccc(F)cn1)N1c2nc(-c3ccnc(N4CCC(F)(F)C4)c3)ccc2N2CC[C@H]1C2 [Example 425]
  Tryp AVG EC1.5 (μM): A (EC1.5<1 μM)
  Emax: ≥ 150%

## N#Cc1ccccc1-c1ccc2c(n1)N(C(=O)Nc1cccnn1)[C@H]1CCCN2C1 [Example 426]
  Tryp AVG EC1.5 (μM): B (EC1.5 1-25 μM)
  Emax: ≥ 150%

## Cc1nc(NC(=O)N2c3nc(-c4cncc(C(F)(F)F)c4)ccc3N3CCC[C@H]2C3)sc1C [Example 427]
  Tryp AVG EC1.5 (μM): A (EC1.5<1 μM)
  Emax: ≥ 150%

## O=C(CCCC[C@@H]1SCC2NC(=O)NC21)NCCCCCC(=O)NCc1ccc(NC(=O)N2c3nc(-c4cccc(C(F)(F)F)c4)ccc3N3CC[C@H]2C3)cc1 (stereo partly shown) [Example 428]
  Tryp AVG EC1.5 (μM): A (EC1.5<1 μM)
  Emax: ≥ 150%

## NCc1ccc(NC(=O)N2c3nc(-c4cccc(C(F)(F)F)c4)ccc3N3CC[C@H]2C3)cc1 [Example 429]
  Tryp AVG EC1.5 (μM): B (EC1.5 1-25 μM)
  Emax: ≥ 150%

## O=C(CCCC[C@@H]1SCC2NC(=O)NC21)NCCCCCC(=O)NCc1ccc(NC(=O)N2c3nc(-c4cccc(C(F)(F)F)c4)ccc3N3CCC[C@H]2C3)cc1 (stereo partly shown) [Example 430]
  Tryp AVG EC1.5 (μM): A (EC1.5<1 μM)
  Emax: ≥ 150%

## O=C(Nc1ccc(F)cn1)N1c2nc(-c3cncc(F)c3)ccc2N2CCC[C@H]1C2 [Example 431]
  Tryp AVG EC1.5 (μM): A (EC1.5<1 μM)
  Emax: ≥ 150%

## O=C(Nc1cnccn1)N1c2nc(-c3cncc(F)c3)ccc2N2CCC[C@H]1C2 [Example 432]
  Tryp AVG EC1.5 (μM): B (EC1.5 1-25 μM)
  Emax: ≥ 150%

## CS(=O)(=O)N1CCCN(c2ccc3c(n2)N(C(=O)Nc2ccncn2)[C@H]2CCCN3C2)CC1 [Example 433]
  Tryp AVG EC1.5 (μM): B (EC1.5 1-25 μM)
  Emax: ≥ 150%

## CC(=O)N1CCCN(c2ccc3c(n2)N(C(=O)Nc2ccncn2)[C@H]2CCCN3C2)CC1 [Example 434]
  Tryp AVG EC1.5 (μM): C (EC1.5>25 μM)
  Emax: < 150%

## O=C(Nc1cnccn1)N1c2nc(-c3ccc(Cl)c(C(F)(F)F)c3)ccc2N2CC[C@H]1C2 [Example 435]
  Tryp AVG EC1.5 (μM): A (EC1.5<1 μM)
  Emax: ≥ 150%

## O=C(Nc1cnccn1)N1c2nc(-c3ccnc(N4CC[C@H](F)C4)c3)ccc2N2CC[C@H]1C2 [Example 436]
  Tryp AVG EC1.5 (μM): A (EC1.5<1 μM)
  Emax: ≥ 150%

## COc1cc(NC(=O)N2c3nc(-c4ccnc(N5CC[C@H](F)C5)c4)ccc3N3CC[C@H]2C3)ncn1 [Example 437]
  Tryp AVG EC1.5 (μM): B (EC1.5 1-25 μM)
  Emax: ≥ 150%

## N#Cc1ccccc1-c1ccc2c(n1)N(C(=O)Nc1cccnc1)[C@H]1CCCN2C1 [Example 438]
  Tryp AVG EC1.5 (μM): B (EC1.5 1-25 μM)
  Emax: ≥ 150%

## N#Cc1ccccc1-c1ccc2c(n1)N(C(=O)Nc1cncc(F)c1)[C@H]1CCCN2C1 [Example 439]
  Tryp AVG EC1.5 (μM): B (EC1.5 1-25 μM)
  Emax: ≥ 150%

## COc1cc(NC(=O)N2c3nc(-c4ccccc4C#N)ccc3N3CCC[C@H]2C3)ncn1 [Example 440]
  Tryp AVG EC1.5 (μM): C (EC1.5>25 μM)
  Emax: < 150%

## O=C(Nc1ccccn1)N1c2nc(-c3cccnc3)ccc2N2CCC[C@H]1C2 [Example 441]
  Tryp AVG EC1.5 (μM): B (EC1.5 1-25 μM)
  Emax: ≥ 150%

## COc1cc(NC(=O)N2c3nc(-c4cccnc4)ccc3N3CCC[C@H]2C3)ncn1 [Example 442]
  Tryp AVG EC1.5 (μM): B (EC1.5 1-25 μM)
  Emax: ≥ 150%

## O=C(Nc1cnccn1)N1c2nc(-c3cccc(Cl)c3)cc(O)c2N2CC[C@H]1C2 [Example 443]
  Tryp AVG EC1.5 (μM): B (EC1.5 1-25 μM)
  Emax: ≥ 150%

## CC(C)(C)OC(=O)NCc1ccc(NC(=O)N2c3nc(-c4cccc(C(F)(F)F)c4)ccc3N3CCC[C@H]2C3)cc1 [Example 445]
  Tryp AVG EC1.5 (μM): A (EC1.5<1 μM)
  Emax: ≥ 150%

## COC(=O)N1CCCN(c2ccc3c(n2)N(C(=O)Nc2ccncn2)[C@H]2CCCN3C2)CC1 [Example 446]
  Tryp AVG EC1.5 (μM): B (EC1.5 1-25 μM)
  Emax: ≥ 150%

## CC(C)N1CCCN(c2ccc3c(n2)N(C(=O)Nc2ccncn2)[C@H]2CCCN3C2)CC1 [Example 447]
  Tryp AVG EC1.5 (μM): C (EC1.5>25 μM)
  Emax: < 150%

## O=C(Nc1ccccn1)N1c2nc(-c3ccnc(N4CC[C@@H](F)C4)c3)ccc2N2CC[C@H]1C2 [Example 448]
  Tryp AVG EC1.5 (μM): B (EC1.5 1-25 μM)
  Emax: ≥ 150%

## N#Cc1ccccc1-c1ccc2c(n1)N(C(=O)Nc1ccccn1)[C@H]1CCCN2C1 [Example 449]
  Tryp AVG EC1.5 (μM): B (EC1.5 1-25 μM)
  Emax: ≥ 150%

## N#Cc1ccccc1-c1ccc2c(n1)N(C(=O)Nc1cnccn1)[C@H]1CCCN2C1 [Example 450]
  Tryp AVG EC1.5 (μM): B (EC1.5 1-25 μM)
  Emax: ≥ 150%

## N#Cc1ccccc1-c1ccc2c(n1)N(C(=O)Nc1ccncn1)[C@H]1CCCN2C1 [Example 451]
  Tryp AVG EC1.5 (μM): B (EC1.5 1-25 μM)
  Emax: ≥ 150%

## O=C(Nc1cnccn1)N1c2nc(-c3cncc(C(F)(F)F)c3)ccc2N2CCC[C@H]1C2 [Example 452]
  Tryp AVG EC1.5 (μM): A (EC1.5<1 μM)
  Emax: ≥ 150%

## O=C(Nc1cncc(F)c1)N1c2nc(-c3cccnc3)ccc2N2CCC[C@H]1C2 [Example 453]
  Tryp AVG EC1.5 (μM): B (EC1.5 1-25 μM)
  Emax: ≥ 150%

## O=C(Nc1cnccn1)N1c2nc(-c3cccnc3)ccc2N2CCC[C@H]1C2 [Example 454]
  Tryp AVG EC1.5 (μM): B (EC1.5 1-25 μM)
  Emax: ≥ 150%

## O=C(Nc1cccnc1)N1c2nc(-c3cccnc3)ccc2N2CCC[C@H]1C2 [Example 455]
  Tryp AVG EC1.5 (μM): B (EC1.5 1-25 μM)
  Emax: ≥ 150%

## O=C(Nc1ccncn1)N1c2nc(-c3cccnc3)ccc2N2CCC[C@H]1C2 [Example 456]
  Tryp AVG EC1.5 (μM): B (EC1.5 1-25 μM)
  Emax: ≥ 150%

## O=C(Nc1cccnn1)N1c2nc(-c3cccnc3)ccc2N2CCC[C@H]1C2 [Example 457]
  Tryp AVG EC1.5 (μM): B (EC1.5 1-25 μM)

## CN(C)c1ccc(-c2ccc3c(n2)N(C(=O)Nc2cnccn2)[C@H]2CCN3C2)cn1 [Example 458]
  Tryp AVG EC1.5 (μM): B (EC1.5 1-25 μM)
  Emax: ≥ 150%

## N#Cc1cncc(-c2ccc3c(n2)N(C(=O)Nc2cnccn2)[C@H]2CCN3C2)c1 [Example 459]
  Tryp AVG EC1.5 (μM): A (EC1.5<1 μM)
  Emax: ≥ 150%

## O=C(Nc1cncc(F)c1)N1c2nc(-c3cccc(C(F)(F)F)c3)ccc2S(=O)(=O)N2CC[C@H]1C2 [Example 460]
  Tryp AVG EC1.5 (μM): B (EC1.5 1-25 μM)
  Emax: ≥ 150%

Source: patent US9765075B2, “Substituted bridged urea analogs as sirtuin modulators” (GLAXOSMITHKLINE LLC, priority 2013, dated 2017)
